Experimental data as given in patent US20090143457A1, “POLYCYCLIC COMPOUNDS FOR USE IN TREATING OCULAR NEURODEGENERATIVE DISEASES” (NORTHEASTERN OHIO UNIVERSITIES COLLEGE OF MEDICINE, priority 2007, published 2009).
Several values for one entry are separate records, joined by “and”; a condition that tells them apart may be missing. Equal entries are not always repeated.

Tests used:
[1] = system: MK-801 binding site in the NMDA channel; assay: [3H]MK-801 displacement binding in homogenate in the presence of NMDA and Gly; conditions: for Hill slope value: dose-response of [3H]MK-801 binding; for displacement of [3H]MK-801: NMDA (100 μM) and Gly (100 μM), 5 nM [3H]MK-801, relative to total binding
Protocol: Now referring to FIG. 3, an example graph 300 that illustrates that at least a subset of the compounds described above have an affinity for the MK-801 binding site in the NMDA channel is presented. More particularly, some triquinylamine compounds may have an affinity for the MK-801 binding site in the NMDA channel. The triquinane-derived azatricycloundecane compounds 100, 102, 108, 116, and 118 (FIGS. 1a, 1b, 1e, 1i, and 1j, respectively) were tested for an ability to displaced labeled MK-801, and the results of such testing are shown in FIG. 3. The graph 300 also illustrates total binding of radiolabeled MK-801 (Total) and non-specific binding of unlabelled MK-801 (NS). […] Specific [^3H]MK-801 binding to the homogenate can be estimated by subtracting non-specific binding (NS) obtained in the presence of 100 μM unlabeled MK-801 from the total binding. Specific binding represented 75% of the total binding and non-specific binding only 25% of total binding at 5 nM [^3H]MK-80 1. Unlabeled MK-80 1 used to determine the non-specific binding also served as a reference compound. NMDA-stimulated displacement for each tested compound was calculated as the difference between the measured value for the labeled MK-801 in the presence of each test compound, and the total binding, although the purpose of the graph 300 represents only the non-specific binding for that particular compound. The compound 118 displaced [^3H]MK-801 by 41.09±4.1%. For the compounds 116, 108, 100, and 102, respectively, there was no statistically significant displacement of [^3H]MK-801, and displacement values were calculated to be 16.93±4.1%, 14.35±7.9%, 20.85±11.7%, and 9.28±6.17%, respectively. Statistical significance compared to total binding in a t-test is (*) p<0.05, (**) p<0.001.
Referring now to FIG. 4, an example graph 400 that illustrates dose-dependent effect of compound 118 shown in FIG. 1j on [^3H]MK-801 binding in the presence of NMDA (100 μM) and Gly (100 μM). More particularly, the graph 400 depicts results of a dose-response curve fitting that was performed to determine the IC50 value for the compound 118. […] The Hill slope values for compounds with high-affinity as NMDA antagonists (MK-801, Memantine, and NGP1-01) are near unity, with lower potency compounds having greater Hill slop values. The Hill slope value for the compound 118 was −1.157±0.052.

L-type calcium channel = assay: IC50 with respect to the L-type calcium channel; format: biochemical

| Compound | Hill slope value [1] | IC50 (L-type calcium channel) | further results |
| --- | --- | --- | --- |
| C[C@]12N[C@H](Cc3ccccc31)c1ccccc12 [MK-801, reference compound] | near unity |  |  |
| CC12CC3CC(C)(C1)CC(N)(C3)C2 [Memantine, reference compound] | near unity |  |  |
| OC12C3C4CC5C6C4C1C6C(C53)N2CCc1ccccc1 (centres unmarked) [compound 104, N-phenylethyl-4-azahexacyclo[5.4.1.0^2,6.0.0^5,9.0^8,11]dodecan-3-ol] |  | 6.8 µM |  |
| CCCCCCCN1C2C3C4CC5C6C4C2C6C1(O)C53 (centres unmarked) [compound 106, N-heptyl-4-azahexacyclo[5.4.1.0^2,6.0.0^5,9.0^8,11]dodecan-3-ol] |  | 7.5 µM |  |
| c1ccc(CCNC23OC4C5C6CC(C7C6C4C72)C53)cc1 (centres unmarked) [compound 112, 8-phenylethylamino-8,11-oxapentacyclo[5.4.0.0^2,6.0^3,10.0^5,9]undecane] |  | 36.4 µM and 36.9 µM |  |
| c1ccc(CNC23OC4C5C6CC(C7C6C4C72)C53)cc1 (centres unmarked) [compound 120, 8-benzylamino-8,11-oxapentacyclo[5.4.0.0^2,6.0^3,10.0^5,9]undecane] | near unity | 60 µM |  |
| CCCCCCCN1CCC2CC3CCCC3C21 (centres unmarked) [compound 122, N-heptyl-3,1-azatricyclo[6.3.0.0^2,6]undecane] |  | 55 µM |  |
| N-(pyridin-4-ylmethyl)-3,11-azatricyclo[6.3.0.0^2,6]undecane [compound 102] |  | 4.9 µM | displacement of [3H]MK-801 [1]: 9.28±6.17% |
| N-benzyl-3,11-azatricyclo[6.3.0.0^2,6]undecane [compound 118] | −1.157±0.052 |  | displacement of [3H]MK-801 [1]: 41.09±4.1%; affinity for the NMDAR (comparison among triquinane-derived compounds) ([1]; among compounds 100, 102, 108, 116 and 118): highest affinity; IC50 ([1]; in the presence of NMDA (100 μM) and Gly (100 μM), dose-response curve fitting): 1.93 ± 0.018 µM |
| N-benzyl-4-azahexacyclo[5.4.1.0^2,6.0.0^5,9.0^8,11]dodecan-3-ol [compound 110] |  | 32.9 µM |  |
| N-cyclohexylmethyl-3,11-azatricyclo[6.3.0.0^2,6]undecane [compound 116] |  | 46 µM and 53 µM | displacement of [3H]MK-801 [1]: 16.93±4.1% |
